Assay results from patent US5116829A, “Steroid compounds” (Kao Corporation, priority 1990, dated 1992).
Read-outs that look alike come from different tables or passages of the source.

Assays:
thymus = test: Systemic side effects: thymus weight; format: in vivo, ddY male mice; settings: 2 mM in peanut oil, s.c., two times at 24 hour interval; Means ± S.E.
Protocol: Systemic side effects of the compound of the present invention were evaluated according to the following method.
Suspensions of the test compounds (2 mM) in peanut oil were subcutaneously injected into the back of ddY male mice (weight: about 30 gm), 10 mice consisting of a test group, two times, once a day at a 24 hour interval. After 24 hours from the last injection, the mice were sacrificed to extract the thymus and to weigh its weight. For the control group only peanut oil was administered. The results are shown in […]

granuloma = test: Anti-inflammatory activity (2): granuloma around embedded filter paper; format: in vivo, Wistar male rats; settings: 10^-2 M, 50 μl/paper, after 6 days; for inhibition at 10000 µM: Rattus norvegicus, 144 h, read-out: Granulating Inhibitory Rate (%)
Excerpt: Test Method of Anti-inflammatory Activity (2) Wistar male rats, age 5 weeks, each group consisting of 5-8 rats, were served for the test. […] The paper was embedded into the right back of the rats. Into the left back was embedded an untreated antibiotic test filter paper. After 6 days, the animals were sacrificed by bleeding and the backs were incised to extract each granuloma formed around the filter. The granuloma was dried and weighed. To the right backs of the control group antibiotic test filter papers infiltrated with 50 μl/paper of ethanol and dried were embedded.

edema of rat auricle = test: Anti-inflammatory activity (1): croton oil-induced auricle edema; format: in vivo, Wistar male rats; settings: 10^-3 M, 800 μl/auricle, 15 seconds, weighed after 6 hours, read-out: Edema inhibitory rate (%)
Protocol: Test Method of Anti-inflammatory Activity (1) […] Wistar male rats, age 5 weeks, each group consisting of 5, were served for the test. The test samples and an inflammation-inducingbase material (control) were infiltrated into circular […]) fixed onto specially prepared tweezers and the right auricles of the animals were put between the tweezers to apply the samples (800 μl/auricle) for 15 seconds at a constant pressure of 500 gw. After 6 hours, the both auricles were punched (.phi. 9 mm) and weighed. An edema inhibitory rate determined by the following equation was taken as an index of the anti-inflammatory activity of the steroid samples. Edema inhibitory rate (%)=100-Y/Z×100 wherein Y is the weight difference (mg) of the right auricle to which the sample drug was applied and the untreated left auricle, and Z is the weight difference (mg) of the right auricle of the rat to which the inflammation-inducing base material was applied and the untreated left auricle.

[1] = Acute toxicity (oral administration); parameters: species or system ICR mice (male); settings: mouse, in vivo, 14 days after administration, read-out: Viability (%)
Protocol: Acute toxicity (oral administration) of the compound of the present invention was evaluated according to the following method. […]

[2] = tested on: eosinophiles infiltration; test: Anti-allergic activity: FMLP-induced eosinophiles infiltration in trachea; format: in vivo, guinea pigs (male); settings: positive control; after 4 hours (so in the source)
Protocol: Test Method of Anti-allergic Activity
To tracheas around the neck of guinea pigs (male; weight 200-300 gm) exposed under anesthesia with Nembutal (0.05 ml/animal, i.p.) were injected FMLP (10^-4 M), which is an inflammation-inducing compound, dissolved in 1% dimethylsulfoxide solution in physiological saline, individually o together with the test compound with a 26 guage needle. For the negative control, only dimethylsulfoxide was injected, and for the positive control betamethasone was administered. […] Eosinophiles infiltrated into the upper, middle, and lower parts of the trachea were counted by microscope. Numbers of eosinophiles found in tracheas to which the test compound was injected were compared with those to which FMLP was independently injected.

C[C@]12CCC(=O)C=C1CC[C@@H]1[C@@H]2[C@@H](O)C[C@@]2(C)[C@H]1CC[C@]2(O)C(=O)CO [Hydrocortisone, hydrocortisone, reference compound]
Thymus weight/10 gm body weight (thymus): 20.8 ± 2.1 mg

CCCCC(=O)O[C@]1(C(=O)CSC(=O)[C@H](CCSC)NC=O)[C@@H](C)C[C@H]2[C@@H]3CCC4=CC(=O)C=C[C@]4(C)[C@@]3(F)[C@@H](O)C[C@@]21C [Compound No. 6, 9-Fluoro-21-[2-(formylamino)-4-methylthio-1-oxobutylthio]-11β-hydroxy-16β-methyl-17-(1-oxopentyloxy)-pregna-1,4-diene-3,20-dione]
Dry weight of ganuloma (granuloma): 7.4 mg
inhibition at 10000 µM (granuloma): 63.9%

CSCCC(NC=O)C(=O)SCC(=O)[C@@]1(O)[C@H](C)C[C@H]2[C@@H]3CC(F)C4=CC(=O)C=C[C@]4(C)[C@@]3(F)[C@H](O)C[C@@]21C (stereo partly drawn) [Compound No. 5, 6,9-Difluoro-21-[2-(formylamino)-4-methylthio-1-oxobutylthio]-11α,17-dihydroxy-16α-methylpregna-1,4-diene-3,20-dione]
inhibition at 1000 µM (edema of rat auricle): 74%

CSCC[C@H](NC=O)C(=O)SCC(=O)[C@@]12OC(C)(C)O[C@@H]1C[C@H]1[C@@H]3CCC4=CC(=O)C=C[C@]4(C)[C@@]3(F)[C@@H](O)C[C@@]12C [Compound No. 3, 9-Fluoro-21-[2-(formylamino)-4-methylthio-1-oxobutylthio]-11β-hydroxy-16α,17α-isopropylidenedioxypregna-1,4-diene-3,20-dione]
inhibition at 1000 µM (edema of rat auricle): 74%

CCCCC(=O)O[C@]1(C(=O)CO)[C@@H](C)C[C@H]2[C@@H]3CCC4=CC(=O)C=C[C@]4(C)[C@@]3(F)[C@@H](O)C[C@@]21C [Betamethasone 17-valerate, betamethasone 17-valerate, reference compound]
Dry weight of ganuloma (granuloma): 15.0 mg
inhibition at 10000 µM (granuloma): 26.6%
survival at 336 h ([1]; dose 1.7 (mg/kg)): 100%
survival at 336 h ([1]; dose 3.3 (mg/kg)): 100%
survival at 336 h ([1]; dose 5 (mg/kg)): 50%
inhibition at 1000 µM (edema of rat auricle): 34%

CSCC[C@H](NC=O)C(=O)SCC(=O)[C@@]1(O)[C@@H](C)C[C@H]2[C@@H]3CCC4=CC(=O)C=C[C@]4(C)[C@@]3(F)[C@@H](O)C[C@@]21C [Compound No. 1, 9-Fluoro-21-[2-(formylamino)-4-methylthio-1-oxobutylthio]-11β,17-dihydroxy-16β-methylpregna-1,4-diene-3,20-dione]
Thymus weight/10 gm body weight (thymus): 23.4 ± 0.3 mg
Dry weight of ganuloma (granuloma): 10.7 mg
inhibition at 10000 µM (granuloma): 47.7%
survival at 336 h ([1]; dose 1.7 (mg/kg)): 100%
survival at 336 h ([1]; dose 3.3 (mg/kg)): 100%
survival at 336 h ([1]; dose 5 (mg/kg)): 100%
inhibition at 1000 µM (edema of rat auricle): 44%

C[C@H]1C[C@H]2[C@@H]3CCC4=CC(=O)C=C[C@]4(C)[C@@]3(F)[C@@H](O)C[C@]2(C)[C@@]1(O)C(=O)CO [Betamethasone, betamethasone]
Thymus weight/10 gm body weight (thymus): 15.4 ± 1.4 mg
eosinophiles infiltration inhibitory effect [2]: only a small effect
